The source of these data is US9617256B2 (priority 2007, dated 2017).

For assay [1], the system named is APAE006 in the presence of 8 micrograms per milliliter of polymyxin B nonapeptide. It counts as cell-based, P. aeruginosa. The settings on record: APAE006 with 8 micrograms per milliliter polymyxin B nonapeptide. Here is the method:
(§1) Bacterial isolates were cultivated from −70° C. frozen stocks by overnight passages at 35° C. in ambient air on Mueller-Hinton agar (Beckton Dickinson, Franklin Lakes, N.J.). Clinical isolates tested were obtained from various geographically diverse hospitals in the US and abroad (Focus Diagnostics, Herndon, Va. and JMI, North Liberty, Iowa). Quality control strains were from the American Type Culture Collection (ATCC; Rockville, Md.). Additional primary panel strains were generated using standard molecular biology techniques.
(§2) Minimum Inhibitory Concentrations (MICs) were determined by the broth microdilution method in accordance with the Clinical and Laboratory Standards Institute (CLSI) guidelines. In brief, organism suspensions were adjusted to a 0.5 McFarland standard to yield a final inoculum between 3×10^5 and 7×10^5 colony-forming units (CFU)/mL. Drug dilutions and inocula were made in sterile, cation adjusted Mueller-Hinton Broth (Beckton Dickinson). An inoculum volume of 100 μL was added to wells containing 100 μL of broth with 2-fold serial dilutions of drug. All inoculated microdilution trays were incubated in ambient air at 35° C. for 18-24 hours. […] Performance of the assay was monitored by the use of laboratory quality-control strains and levofloxacin, a compound with a defined MIC spectrum, in accordance with CLSI guidelines.
(§3) *AECO001 is ATCC25922, AECO063 is ATCC25922 bearing an acrAB mutation, APAE001 is ATCC27853, APAE006 is a strain of P. aeruginosa in which all efflux pumps are inactivated, APAE006+PMBN indicates MICs with the indicated strain in the presence of 8 micrograms per milliliter of polymyxin B nonapeptide, AABA1060 is a clinical isolate of Acinetobacter baumannii, ASAU001 is a laboratory strain of S. aureus (ATCC29213).

Assay [2] concerns ASAU001 (laboratory strain of S. aureus, ATCC29213). The assay can be described thus: MIC broth microdilution, ASAU001. It is filed as cell-based. The settings on record: Staphylococcus aureus, ATCC29213, read-out: MIC ASAU001. How it is done:
as §1, §2, §3
A general note: In broth dilution the organism is exposed to a series of concentrations in liquid medium.

The test system of assay [3] is APAE001 (ATCC27853). The experiment in a line: MIC broth microdilution, APAE001. It counts as cell-based, P. aeruginosa. Particulars: Pseudomonas aeruginosa, ATCC27853, read-out: MIC APAE001, APAE001 (ATCC27853). How it is done: as §1, §2, §3
For assay [4], the system named is AECO001 (ATCC25922). The assay can be described thus: MIC broth microdilution, AECO001. It is filed as cell-based, E. coli. Particulars: for MIC: Escherichia coli; for Ratio of MICs on AECO001 [Cpd (A = —CHCH3NH2)/Cpd (A = —C(CH3)2NH2)]: MIC of paired compound with A = —CHCH3NH2 divided by MIC of compound with A = —C(CH3)2NH2, n=2 data, pairs identical except for the A moiety. Here is the method: as §1, §2, §3

For assay [5], the system named is APAE006 (strain of P. aeruginosa in which all efflux pumps are inactivated). The experiment in a line: microbe, parasite or virus in culture. It counts as cell-based. Particulars: Pseudomonas aeruginosa, read-out: MIC APAE006, APAE006, all efflux pumps inactivated. How it is done: as §1, §2, §3
Assay [6] deals with AABA1060 (clinical isolate of Acinetobacter baumannii). The experiment in a line: MIC broth microdilution, AABA1060. The settings on record: Acinetobacter baumannii, read-out: MIC AABA1060. It counts as cell-based. How it is done:
as §1, §2, §3

For assay [7], the system named is AECO063 (ATCC25922 bearing an acrAB mutation). The assay can be described thus: microbe, parasite or virus in culture. It is filed as cell-based, E. coli. Particulars: Escherichia coli, ATCC25922, read-out: MIC AECO063. How it is done:
as §1, §2, §3

Setting [8] is: ATCC25922, read-out: MIC AECO001.
[9] abbreviates: ATCC25922, read-out: MIC AECO001 HSA AGP.

Values after ≈ are worked out from the molar mass of the structure shown. Read-outs that look alike come from different tables or passages of the source.

In the case of `C[C@@H](N)[C@H](NC(=O)c1ccc(C#C/C=C/c2ccncc2)cc1)C(=O)NO` [Example 106-3], the “MIC APAE006 + PMBN” value in assay [1] is given as “A (MIC's of 2.0 μg/mL or less = A)”. Also, the MIC in assay [2] is 16 to 64 mg/L (≈ 43.9 to 176 µM); in assay [3], below 2 mg/L; in assay [4] (setting [8]), below 2 mg/L; in assay [4] (setting [9]), 16 to 64 mg/L (≈ 43.9 to 176 µM); in assay [5], below 2 mg/L; in assay [6], 16 to 64 mg/L (≈ 43.9 to 176 µM). Besides, the MIC in assay [7] was below 2 mg/L.

As for `NC[C@H](NC(=O)c1ccc(C#Cc2ccc(CNC(=O)CCC(=O)O)cc2)cc1)C(=O)NO` [Example 137-11], the “MIC APAE006 + PMBN” value in assay [1] was “B (MIC's of greater than 2.0 μg/mL to 16.0 μg/mL = B)”. In addition, the MIC in assay [2] is above 64 mg/L; in assay [3], 16 to 64 mg/L (≈ 35.4 to 141 µM); in assay [4] (setting [8]) it was above 64 mg/L; in assay [4] (setting [9]) it was above 64 mg/L; in assay [5] it was 2 to 16 mg/L (≈ 4.42 to 35.4 µM); in assay [6], above 64 mg/L. Further, in assay [7], the MIC was 16 to 64 mg/L (≈ 35.4 to 141 µM).

For the molecule `C[C@@H](O)[C@H](NC(=O)c1ccc(C#CC#Cc2cccc(F)c2)cc1)C(=O)NO` [Example 82-18], the “MIC APAE006 + PMBN” value in assay [1] is “A (MIC's of 2.0 μg/mL or less = A)”. Further, the MIC in assay [2] was 16 to 64 mg/L (≈ 42.1 to 168 µM); in assay [3], 2 to 16 mg/L (≈ 5.26 to 42.1 µM); in assay [4] (setting [8]), below 2 mg/L; in assay [4] (setting [9]) it was 2 to 16 mg/L (≈ 5.26 to 42.1 µM); in assay [5], below 2 mg/L; in assay [6] it was 16 to 64 mg/L (≈ 42.1 to 168 µM). The MIC in assay [7] was below 2 mg/L.

Take `CC(C)(N)[C@H](NC(=O)c1ccc(C#Cc2ccc(CN3CCS(=O)(=O)CC3)cc2)cc1)C(=O)NO` [Example 122-4]: the “MIC APAE006 + PMBN” value in assay [1] is on record as “A (MIC's of 2.0 μg/mL or less = A)”. The MIC is 16 to 64 mg/L (≈ 32.1 to 128 µM) in assay [2]; below 2 mg/L in assay [3]; below 2 mg/L in assay [4] (setting [8]); 2 to 16 mg/L (≈ 4.01 to 32.1 µM) in assay [4] (setting [9]); below 2 mg/L in assay [5]; below 2 mg/L in assay [6]. Besides, the MIC in assay [7] was below 2 mg/L.

For the molecule `C[C@@H](N)[C@H](NC(=O)c1ccc(C#CC#Cc2cccs2)cc1)C(=O)NO` [Example 88-12], the “MIC APAE006 + PMBN” value in assay [1] was “A (MIC's of 2.0 μg/mL or less = A)”. Besides, the MIC was 2 to 16 mg/L (≈ 5.44 to 43.5 µM) in assay [2]; below 2 mg/L in assay [3]; below 2 mg/L in assay [4] (setting [8]); 2 to 16 mg/L (≈ 5.44 to 43.5 µM) in assay [4] (setting [9]); below 2 mg/L in assay [5]; below 2 mg/L in assay [6]. Moreover, the MIC in assay [7] was below 2 mg/L.

On to `CC(C)(N)[C@H](NC(=O)c1ccc(C#CC2CC2c2ccccc2)cc1)C(=O)NO` (stereo partly drawn) [Example 134-1, N—((S)-2-Amino-1-hydroxycarbamoyl-2-methyl-propyl)-4-(2-phenyl-cyclopropylethynyl)-benzamide], for which the “MIC APAE006 + PMBN” value in assay [1] is listed as “A (MIC's of 2.0 μg/mL or less = A)”. Further, the MIC was 16 to 64 mg/L (≈ 40.9 to 163 µM) in assay [2]; 2 to 16 mg/L (≈ 5.11 to 40.9 µM) in assay [3]; 2 to 16 mg/L (≈ 5.11 to 40.9 µM) in assay [4] (setting [8]); 2 to 16 mg/L (≈ 5.11 to 40.9 µM) in assay [4] (setting [9]); below 2 mg/L in assay [5]; below 2 mg/L in assay [6]. In addition, in assay [7], the MIC is below 2 mg/L.

Turning to `CC(C)(N)[C@H](NC(=O)c1ccc(C#Cc2ccccc2)cc1)C(=O)NO` [Example 133-6], the “MIC APAE006 + PMBN” value in assay [1] is listed as “A (MIC's of 2.0 μg/mL or less = A)”. Moreover, the MIC was 2 to 16 mg/L (≈ 5.69 to 45.5 µM) in assay [2]; below 2 mg/L in assay [3]; below 2 mg/L in assay [4] (setting [8]); below 2 mg/L in assay [4] (setting [9]); below 2 mg/L in assay [5]; below 2 mg/L in assay [6]. Also, in assay [7], the MIC was below 2 mg/L. Also, the “Ratio of MICs on AECO001 [Cpd (A = —CHCH3NH2)/Cpd (A = —C(CH3)2NH2)]” value in assay [4] turned out to be 20.8.

In the case of `Cn1cc(C#CC#Cc2ccc(C(=O)N[C@H](C(=O)NO)C(C)(C)N)cc2)cn1` [Example 89-2], the “MIC APAE006 + PMBN” value in assay [1] is “A (MIC's of 2.0 μg/mL or less = A)”. Besides, the MIC in assay [2] is 16 to 64 mg/L (≈ 42.2 to 169 µM); in assay [3], below 2 mg/L; in assay [4] (setting [8]), below 2 mg/L; in assay [4] (setting [9]), 2 to 16 mg/L (≈ 5.27 to 42.2 µM); in assay [5] it was below 2 mg/L; in assay [6], below 2 mg/L. Moreover, the MIC in assay [7] was below 2 mg/L. In addition, in assay [4], the “Ratio of MICs on AECO001 [Cpd (A = —CHCH3NH2)/Cpd (A = —C(CH3)2NH2)]” value was 1.6.
